Values after ≈ are worked out from the molar mass of the structure shown.
Experiments:
Staphylococcus aureus [1] = assay: Antimicrobial activity against methicillin-resistant Staphylococcus aureus incubated for 18 hrs by serial microdilution method; type: functional
Staphylococcus aureus [2] = assay: Antimicrobial activity against Staphylococcus aureus ATCC 6538 incubated for 18 hrs by serial microdilution method; type: functional; conditions: ATCC 6538, 18 h
Staphylococcus aureus [3] = assay: Antimicrobial activity against MLSB-resistant Staphylococcus aureus incubated for 18 hrs by serial microdilution method; type: functional
[4] = test system: Staphylococcus epidermidis; assay: Antimicrobial activity against Staphylococcus epidermidis ATCC 12228 incubated for 18 hrs by serial microdilution method; type: functional; conditions: ATCC 12228, 18 h
[5] = test system: Staphylococcus epidermidis; assay: Antimicrobial activity against Staphylococcus epidermidis ATCC 49134 incubated for 18 hrs by serial microdilution method; type: functional; conditions: ATCC 49134, 18 h
Enterococcus faecalis = assay: Antimicrobial activity against Enterococcus faecalis ATCC 29212 incubated for 18 hrs by serial microdilution method; type: functional; conditions: ATCC 29212, 18 h
Escherichia coli = assay: Antimicrobial activity against Escherichia coli ATCC 25922 incubated for 18 hrs by serial microdilution method; type: functional; conditions: ATCC 25922, 18 h
[6] = Solubility of the compound in water at pH 7 by UV-vis spectrophotometric analysis; type: physicochemical
[7] = Lipophilicity, log P of the compound in octanol and water incubated for 1 h under shaking condition; type: physicochemical

SMILES | MIC (Staphylococcus aureus [1]) [µg/mL] | MIC (Staphylococcus aureus [2]) [µg/mL] | MIC (Staphylococcus aureus [3]) [µg/mL] | MIC [4] [µg/mL] | MIC [5] [µg/mL] | MIC (Enterococcus faecalis) [µg/mL] | MIC (Escherichia coli) [µg/mL] | solubility [6] [µg/mL] | logP at 1 h [7]
CO[C@H]1/C=C/O[C@@]2(C)Oc3c(C)c(O)c4c(O)c(c(/C=N/N5CCCCC5)c(O)c4c3C2=O)NC(=O)/C(C)=C\C=C\[C@H](C)[C@H](O)[C@@H](C)[C@@H](O)[C@@H](C)[C@H](OC(C)=O)[C@@H]1C | 0.0156 (≈ 0.0193 µM) | 0.0156 (≈ 0.0193 µM) | 0.5 (≈ 0.619 µM) | 0.0156 (≈ 0.0193 µM) | 0.0312 (≈ 0.0387 µM) | 0.5 (≈ 0.619 µM) | > 8 | < 300 | 3.27
CO[C@H]1/C=C/O[C@@]2(C)Oc3c(C)c(O)c4c(O)c(c(CN5CCN(c6ncccn6)CC5)c(O)c4c3C2=O)NC(=O)/C(C)=C\C=C\[C@H](C)[C@H](O)[C@@H](C)[C@@H](O)[C@@H](C)[C@H](OC(C)=O)[C@@H]1C | 1 (≈ 1.14 µM) | 1 (≈ 1.14 µM) | 2 (≈ 2.29 µM) | 0.25 (≈ 0.286 µM) | 0.25 (≈ 0.286 µM) | > 8 | > 8 | 50 (≈ 57.2 µM) | 2.02
CO[C@H]1/C=C/O[C@@]2(C)Oc3c(C)c(O)c4c(O)c(c(CN5CCC6(CC5)NCCc5ccccc56)c(O)c4c3C2=O)NC(=O)/C(C)=C\C=C\[C@H](C)[C@H](O)[C@@H](C)[C@@H](O)[C@@H](C)[C@H](OC(C)=O)[C@@H]1C | 8 (≈ 8.77 µM) | 8 (≈ 8.77 µM) | 8 (≈ 8.77 µM) | 2 (≈ 2.19 µM) | 2 (≈ 2.19 µM) | 4 (≈ 4.39 µM) | > 8 | < 50 | 2.09
CO[C@H]1/C=C/O[C@@]2(C)Oc3c(C)c(O)c4c(O)c(c(/C=N/Nc5ccccc5)c(O)c4c3C2=O)NC(=O)/C(C)=C\C=C\[C@H](C)[C@H](O)[C@@H](C)[C@@H](O)[C@@H](C)[C@H](OC(C)=O)[C@@H]1C | 0.5 (≈ 0.613 µM) | 0.5 (≈ 0.613 µM) | 1 (≈ 1.23 µM) | 0.5 (≈ 0.613 µM) | 0.25 (≈ 0.306 µM) | > 8 | > 8 | < 50 | 2.75
CO[C@H]1/C=C/O[C@@]2(C)Oc3c(C)c(O)c4c(O)c(c(/C=N/NCc5ccccc5)c(O)c4c3C2=O)NC(=O)/C(C)=C\C=C\[C@H](C)[C@H](O)[C@@H](C)[C@@H](O)[C@@H](C)[C@H](OC(C)=O)[C@@H]1C | 1 (≈ 1.2 µM) | 0.5 (≈ 0.602 µM) | 0.5 (≈ 0.602 µM) | 0.25 (≈ 0.301 µM) | 0.25 (≈ 0.301 µM) | > 8 | > 8 | < 50 | 2.34
CO[C@H]1/C=C/O[C@@]2(C)Oc3c(C)c(O)c4c(O)c(c(CN5CCN(C)C6(CCN(C)CC6)C5)c(O)c4c3C2=O)NC(=O)/C(C)=C\C=C\[C@H](C)[C@H](O)[C@@H](C)[C@@H](O)[C@@H](C)[C@H](OC(C)=O)[C@@H]1C | 0.125 (≈ 0.14 µM) | 0.25 (≈ 0.28 µM) | 0.125 (≈ 0.14 µM) | 0.0625 (≈ 0.07 µM) | 0.0625 (≈ 0.07 µM) | 2 (≈ 2.24 µM) | > 8 | 1830 (≈ 2050 µM) | 0.72
CCS(=O)(=O)N1CCN(Cc2c3c(O)c4c(O)c(C)c5c(c4c2O)C(=O)[C@@](C)(O/C=C/[C@H](OC)[C@@H](C)[C@@H](OC(C)=O)[C@H](C)[C@H](O)[C@H](C)[C@@H](O)[C@@H](C)/C=C/C=C(/C)C(=O)N3)O5)CC1 | 0.5 (≈ 0.563 µM) | 0.5 (≈ 0.563 µM) | 0.5 (≈ 0.563 µM) | 0.25 (≈ 0.282 µM) | 0.25 (≈ 0.282 µM) | > 8 | > 8 | 1730 (≈ 1950 µM) | 1.41
CO[C@H]1/C=C/O[C@@]2(C)Oc3c(C)c(O)c4c(O)c(c(/C=N/NC5CCCCC5)c(O)c4c3C2=O)NC(=O)/C(C)=C\C=C\[C@H](C)[C@H](O)[C@@H](C)[C@@H](O)[C@@H](C)[C@H](OC(C)=O)[C@@H]1C | 0.5 (≈ 0.608 µM) | 0.5 (≈ 0.608 µM) | 0.5 (≈ 0.608 µM) | 0.25 (≈ 0.304 µM) | 0.25 (≈ 0.304 µM) | 1 (≈ 1.22 µM) | > 8 | < 50 | 2.1
CO[C@H]1/C=C/O[C@@]2(C)Oc3c(C)c(O)c4c(O)c(c(CN5CCN(c6ccncc6)CC5)c(O)c4c3C2=O)NC(=O)/C(C)=C\C=C\[C@H](C)[C@H](O)[C@@H](C)[C@@H](O)[C@@H](C)[C@H](OC(C)=O)[C@@H]1C | 2 (≈ 2.29 µM) | 2 (≈ 2.29 µM) | 2 (≈ 2.29 µM) | 0.5 (≈ 0.573 µM) | 0.5 (≈ 0.573 µM) | > 8 | > 8 | < 50 | 2.06
CO[C@H]1/C=C/O[C@@]2(C)Oc3c(C)c(O)c4c(O)c(c(/C=N/Nc5ccnc6cc(Cl)ccc56)c(O)c4c3C2=O)NC(=O)/C(C)=C\C=C\[C@H](C)[C@H](O)[C@@H](C)[C@@H](O)[C@@H](C)[C@H](OC(C)=O)[C@@H]1C | 0.25 (≈ 0.277 µM) | 0.25 (≈ 0.277 µM) | 0.125 (≈ 0.139 µM) | 0.125 (≈ 0.139 µM) | 0.125 (≈ 0.139 µM) | 8 (≈ 8.87 µM) | > 8 | < 300 | 2.1
CO[C@H]1/C=C/O[C@@]2(C)Oc3c(C)c(O)c4c(O)c(c(/C=N/N5CCCCCC5)c(O)c4c3C2=O)NC(=O)/C(C)=C\C=C\[C@H](C)[C@H](O)[C@@H](C)[C@@H](O)[C@@H](C)[C@H](OC(C)=O)[C@@H]1C | 0.0625 (≈ 0.076 µM) | 0.0625 (≈ 0.076 µM) | 0.5 (≈ 0.608 µM) | 0.0312 (≈ 0.038 µM) | 0.0312 (≈ 0.038 µM) | 0.5 (≈ 0.608 µM) | > 8 | < 300 | 3.43
CO[C@H]1/C=C/O[C@@]2(C)Oc3c(C)c(O)c4c(O)c(c(/C=N/N5CCCC5)c(O)c4c3C2=O)NC(=O)/C(C)=C\C=C\[C@H](C)[C@H](O)[C@@H](C)[C@@H](O)[C@@H](C)[C@H](OC(C)=O)[C@@H]1C | 0.25 (≈ 0.315 µM) | 0.25 (≈ 0.315 µM) | 0.5 (≈ 0.63 µM) | 0.25 (≈ 0.315 µM) | 0.25 (≈ 0.315 µM) | 4 (≈ 5.04 µM) | > 8 | < 300 | 3.13
CO[C@H]1/C=C/O[C@@]2(C)Oc3c(C)c(O)c4c(O)c(c(CN5CCC(NS(C)(=O)=O)CC5)c(O)c4c3C2=O)NC(=O)/C(C)=C\C=C\[C@H](C)[C@H](O)[C@@H](C)[C@@H](O)[C@@H](C)[C@H](OC(C)=O)[C@@H]1C | 2 (≈ 2.25 µM) | 4 (≈ 4.5 µM) | 2 (≈ 2.25 µM) | 0.5 (≈ 0.563 µM) | 0.5 (≈ 0.563 µM) | > 8 | > 8 | 36400 (≈ 41000 µM) | 0.31
CO[C@H]1/C=C/O[C@@]2(C)Oc3c(C)c(O)c4c(O)c(c(/C=N/NC(C)(C)C)c(O)c4c3C2=O)NC(=O)/C(C)=C\C=C\[C@H](C)[C@H](O)[C@@H](C)[C@@H](O)[C@@H](C)[C@H](OC(C)=O)[C@@H]1C | 1 (≈ 1.26 µM) | 1 (≈ 1.26 µM) | 2 (≈ 2.51 µM) | 1 (≈ 1.26 µM) | 0.5 (≈ 0.628 µM) | 8 (≈ 10.1 µM) | > 8 | < 50 | 2.43
CO[C@H]1/C=C/O[C@@]2(C)Oc3c(C)c(O)c4c(O)c(c(CN5CCN(c6ncccc6C(F)(F)F)CC5)c(O)c4c3C2=O)NC(=O)/C(C)=C\C=C\[C@H](C)[C@H](O)[C@@H](C)[C@@H](O)[C@@H](C)[C@H](OC(C)=O)[C@@H]1C | 4 (≈ 4.25 µM) | 2 (≈ 2.13 µM) | 2 (≈ 2.13 µM) | 0.5 (≈ 0.531 µM) | 0.5 (≈ 0.531 µM) | > 8 | > 8 | < 50 | 2.09
CO[C@H]1/C=C/O[C@@]2(C)Oc3c(C)c(O)c4c(O)c(c(CN5CCN(c6ccccn6)CC5)c(O)c4c3C2=O)NC(=O)/C(C)=C\C=C\[C@H](C)[C@H](O)[C@@H](C)[C@@H](O)[C@@H](C)[C@H](OC(C)=O)[C@@H]1C | 1 (≈ 1.15 µM) | 2 (≈ 2.29 µM) | 0.5 (≈ 0.573 µM) | 0.25 (≈ 0.286 µM) | 0.25 (≈ 0.286 µM) | > 8 | > 8 | < 50 | 1.99

Source: ChEMBL document CHEMBL4339185 (Eur J Med Chem, 2019)
